How the values were obtained:
[1] = tested on: labile Cu(I) in Ctr1^+/+ MEFs; experiment: Confocal fluorescence imaging of labile Cu(I) in Ctr1+/+ MEFs; type: cell-based, mouse
Description: (§1) (A) Confocal fluorescence microscopy images of Ctr1^+/+ MEFs and Ctr1^−/− MEFs treated with solvent control, CuCl2 (100 or 300 μM) or BCS (500 μM) in complete medium for 8 h, washed with complete medium and PBS, incubated with FCP-1 (5 μM) in DPBS for 45 min, and then imaged with λex=458 nm. (B) Average cellular ratiometric emission ratios of FCP-1, Fgreen/Forange, as determined from experiments performed in triplicate. (C) Total cellular ^63Cu levels were determined by ICP-MS experiments (with normalization of different cell numbers by total cellular ^31P level). (D) Confocal fluorescence microscopy images of Ctr1^+/+ MEFs and Ctr1^−/− MEFs incubated with FL-TPA (5 μM) in DPBS for 45 min. The cells were then imaged with λex=488 nm. (E) Average cellular fluorescence intensity of FL-TPA, FFL-TPA, determined from experiments performed in triplicate with λex=488 nm. Error bars denote SD (n=3). *p<0.05, **p<0.01 and ***p<0.001.
(§2) Cell culture. Following cell cultures were grown: Human embryonic kidney (HEK 293T) cells were maintained in Dulbecco's Modified Eagle Medium (DMEM) supplemented with 10 vol % fetal bovine serum (FBS), 1 vol % GlutaMax (Gibco) and 1 vol % non-essential amino acids (NEAA, Gibco). Ctrl1^+/+ and Ctr1^−/− MEF cells were maintained in DMEM with 10 vol % FBS, 1 vol % non-essential amino acids, 1 vol % sodium pyruvate and 0.1 vol % 2-mercaptoethanol or DMEM supplemented with 10 vol % FBS and 1× Penicillin-Streptomycin. Human cervical epithelial carcinoma (HeLa) was maintained in DMEM medium supplemented with 1 vol % GlutaMAX and 10 vol % FBS. All cells were incubated in 5% CO2 humidified air and subcultured at 80% confluence.
Confocal fluorescence microscopy imaging. For confocal fluorescence imaging experiments of HEK293T, MEF Ctr1^+/+ and Ctr1^−/− and HeLa cells, the cells were plated on 8-well Lab Tek borosilicate chambered coverglass slides (Nunc), and allowed to grow to ca. 60% confluency before performing the cell imaging experiments. The confocal imaging was performed with a Zeiss laser scanning microscope 710 with 20× or 63× oil-immersion objective lens using Zen 2009 software (Carl Zeiss). FCP-1 was excited with 458 nm with an Ar laser, and the emissions were collected using a META detector between 465 and 541 nm (Fgreen), and between 559 and 710 nm (Forange). DRAQ-5 was excited with a 633 nm He Ne laser, and its emission was collected using a META detector between 661 and 759 nm. Image analysis was performed using ImageJ, with ratiometric images generated by the Ratio Plus plugin of ImageJ. For quantification, a threshold value was set as background and the average intensity of the whole image was measured by ImageJ. All experiments were performed in triplicate, and statistical analyses were performed with a two-tailed Student's t-test (MS excel).
Having established that FCP-1 is sensitive to endogenous pools of labile Cu(I) under basal conditions and can respond to changes in labile Cu(I) pools upon pharmacological copper supplementation and/or depletion, the application of FCP-1 to visualize alterations in endogenous labile Cu(I) pools through genetic manipulation was explored. To this end, comparative FCP-1 imaging was performed in mouse embryonic fibroblast cells that are either Cu-replete (Ctr1^+/+ MEFs) or Cu-deficient (Ctr1^−/− MEFs) through knockout of the high-affinity copper transporter CTR1 (64-66).
Complementary ICP-MS measurements confirm that total copper levels in Ctr1^−/− MEFs are lower than Ctr1^+/+ MEFs (FIG. 12C). […]

[2] = tested on: labile Cu(I) in Ctr1^−/− MEFs; experiment: Confocal fluorescence imaging of labile Cu(I) in Ctr1-/- MEFs; type: cell-based, mouse
Description: as §1
as §2, with “All cells were incubated in 5% CO2 humidified air and subcultured at 80% confluence.” left out
(§3) Confocal fluorescence microscopy imaging. For confocal fluorescence imaging experiments of HEK293T, MEF Ctr1^+/+ and Ctr1^−/− and HeLa cells, the cells were plated on 8-well Lab Tek borosilicate chambered coverglass slides (Nunc), and allowed to grow to ca. 60% confluency before performing the cell imaging experiments. […] For quantification, a threshold value was set as background and the average intensity of the whole image was measured by ImageJ. […]

[3] = tested on: labile Cu(I) pools in HeLa cells; experiment: Ratiometric confocal fluorescence imaging of labile Cu(I) in HeLa cells under redox stress; type: cell-based, Human; details: FCP-1 5 μM
Description: Confocal fluorescence microscopy images of HeLa cells pretreated with (A) solvent control, CuCl2 (200 or 300 μM), or BCS (100 μM) in complete medium for 18 h, or (B) solvent control, ascorbate (1 mM), or BSO (1 mM) in complete medium for 4 h. The cells were then washed with PBS, incubated with FCP-1 (5 μM) in DPBS for 45 min and imaged with λex=458 nm. The bar charts show average cellular ratiometric FCP-1 emission, Fgreen/Forange, determined from experiments performed in triplicate. (C) Total cellular ^63Cu levels were determined by ICP-MS experiments (with normalization of different cell numbers by total cellular ^31P level). […]
as §3
In view of the oxidation state-specificity of FCP-1 toward Cu(I), the impact of cellular redox status on labile Cu(I) pools was examined First, the ability of FCP-1 to detect changes in labile Cu(I) levels in HeLa cells with CuCl2 and BCS treatments was evaluated (FIG. 16A). […]

## CC[N+](CC)=c1ccc2c(-c3ccccc3C(=O)O)c3ccc(N4CCN(Cc5cccc(CN(Cc6ccccn6)Cc6cccc(COc7ccc8c(-c9ccccc9C(=O)OC)c9ccc(=O)cc-9oc8c7)n6)n5)CC4)cc3oc-2c1 [FCP-1]
[1]; Ctr1+/+ MEFs (FIG. 13)
  cellular viability by nuclear stain DRAQ5: cellular viability was maintained
[1]; Ctr1+/+ MEFs, BCS
  Fgreen/Forange ratio after BCS: reduction in Fgreen/Forange ratio
[1]; Ctr1+/+ MEFs, varying concentrations of CuCl2
  Fgreen/Forange ratio after CuCl2: dose-dependent increase
[1]; basal, FCP-1 5 μM, p<0.01
  Fgreen/Forange ratio, Ctr1+/+ MEFs compared to Ctr1−/− MEFs: higher Fgreen/Forange ratios
[2]; Ctr1−/− MEFs (FIG. 14)
  cellular viability by nuclear stain DRAQ5: cellular viability was maintained
[2]; Ctr1−/− MEFs incubated with CuCl2
  Fgreen/Forange ratio after CuCl2: no statistically significant changes
[2]; Ctr1−/− MEFs, BCS (500 μM)
  Fgreen/Forange ratio after BCS: reduction in Fgreen/Forange ratio
[3]; BSO 1 mM 4 h
  Fgreen/Forange ratio in BSO-treated cells compared to control: higher
[3]; ascorbate 1 mM 4 h
  Fgreen/Forange ratio in ascorbate-treated cells compared to control: statistically significant increase

Source: patent US12241902B2, “Probes for detection of copper” (The Regents of the University of California, priority 2019, dated 2025)
